Measured values from paper PMC4832243, “Discovery of Potent VEGFR-2 Inhibitors based on Furopyrimidine and Thienopyrimidne Scaffolds as Cancer Targeting Agents” (Scientific Reports, 2016).

Columns and labels:
MCF7 = experiment: NCI 60 cell line panel (SRB), MCF7; format: cell-based; settings: Homo sapiens; MCF7, Breast Cancer; single dose of 10 μM; read-out: Cell Growth Percent
LOX IMVI = experiment: NCI 60 cell line panel (SRB), LOX IMVI; format: cell-based; settings: Homo sapiens, Melanoma, single dose of 10 μM, read-out: Cell Growth Percent
T-47D = experiment: NCI 60 cell line panel (SRB), T-47D; format: cell-based; settings: Homo sapiens, T47D, Breast Cancer, single dose of 10 μM, read-out: Cell Growth Percent
OVCAR-3 = experiment: NCI 60 cell line panel (SRB), OVCAR-3; format: cell-based; settings: Homo sapiens; OVCAR-3, Ovarian Cancer; single dose of 10 μM; read-out: Cell Growth Percent
CCRF-CEM = experiment: NCI 60 cell line panel (SRB), CCRF-CEM; format: cell-based; settings: Homo sapiens, Leukemia, single dose of 10 μM, read-out: Cell Growth Percent
DU-145 = experiment: NCI 60 cell line panel (SRB), DU-145; format: cell-based; settings: Homo sapiens; DU-145, Prostate Cancer; single dose of 10 μM; read-out: Cell Growth Percent
NCI/ADR-RES = experiment: NCI 60 cell line panel (SRB), NCI/ADR-RES; format: cell-based; settings: Homo sapiens, Ovarian Cancer, single dose of 10 μM, read-out: Cell Growth Percent
HT29 = experiment: NCI 60 cell line panel (SRB), HT29; format: cell-based; settings: Homo sapiens, HT-29; HT29, Colon Cancer; single dose of 10 μM; read-out: Cell Growth Percent
VEGFR-2 (KDR) = biological target: T1, VEGFR-2 (KDR) (Homo sapiens, UniProt P35968); experiment: In vitro VEGFR-2 tyrosine kinase activity (Kinase-Glo Plus luminescence, BPS Bioscience); format: biochemical; settings: for IC50: 5 concentrations 1 nM - 10 μM; for inhibition at 10 µM: single dose concentration of 10 μM
T1 construct: purchased BPS Bioscience 40301
T1 sequence (P35968 20-1356): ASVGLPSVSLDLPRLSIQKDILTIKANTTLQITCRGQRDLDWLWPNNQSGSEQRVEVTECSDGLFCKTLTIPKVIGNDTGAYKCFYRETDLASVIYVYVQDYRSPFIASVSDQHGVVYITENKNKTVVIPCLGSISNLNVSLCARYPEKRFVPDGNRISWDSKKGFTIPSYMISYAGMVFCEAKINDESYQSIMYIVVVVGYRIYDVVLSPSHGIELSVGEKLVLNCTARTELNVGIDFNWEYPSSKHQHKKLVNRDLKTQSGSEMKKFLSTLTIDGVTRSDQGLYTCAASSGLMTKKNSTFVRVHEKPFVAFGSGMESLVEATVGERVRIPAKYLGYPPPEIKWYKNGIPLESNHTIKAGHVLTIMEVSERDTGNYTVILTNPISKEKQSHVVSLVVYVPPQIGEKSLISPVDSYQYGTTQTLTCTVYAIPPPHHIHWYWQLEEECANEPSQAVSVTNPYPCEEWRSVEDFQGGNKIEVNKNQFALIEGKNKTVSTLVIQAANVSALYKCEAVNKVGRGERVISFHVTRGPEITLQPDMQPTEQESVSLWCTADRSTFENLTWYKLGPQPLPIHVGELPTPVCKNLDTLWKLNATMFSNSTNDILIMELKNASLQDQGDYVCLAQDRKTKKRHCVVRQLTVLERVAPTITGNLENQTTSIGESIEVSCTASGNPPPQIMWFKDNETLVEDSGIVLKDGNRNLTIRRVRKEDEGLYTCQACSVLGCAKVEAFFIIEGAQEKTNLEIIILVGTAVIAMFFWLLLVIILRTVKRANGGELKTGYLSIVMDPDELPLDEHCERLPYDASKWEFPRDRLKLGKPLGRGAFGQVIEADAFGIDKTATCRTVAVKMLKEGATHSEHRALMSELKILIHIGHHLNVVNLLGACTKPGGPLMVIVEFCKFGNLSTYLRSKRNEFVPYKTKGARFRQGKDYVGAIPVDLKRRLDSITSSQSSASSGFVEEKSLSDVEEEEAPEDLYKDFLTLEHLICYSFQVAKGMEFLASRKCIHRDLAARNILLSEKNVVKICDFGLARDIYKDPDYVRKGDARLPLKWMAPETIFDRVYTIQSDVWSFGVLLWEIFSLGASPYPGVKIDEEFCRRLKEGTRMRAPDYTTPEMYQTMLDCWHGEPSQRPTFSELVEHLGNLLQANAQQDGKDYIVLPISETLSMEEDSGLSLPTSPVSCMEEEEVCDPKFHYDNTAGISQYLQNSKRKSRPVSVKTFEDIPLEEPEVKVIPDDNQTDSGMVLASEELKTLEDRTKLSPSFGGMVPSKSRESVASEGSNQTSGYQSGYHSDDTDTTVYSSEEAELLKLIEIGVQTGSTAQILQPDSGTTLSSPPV

PC-3 = experiment: NCI 60 cell line panel (SRB), PC-3; format: cell-based; settings: Homo sapiens; PC-3, Prostate Cancer; single dose of 10 μM; read-out: Cell Growth Percent
NCI-H23 = experiment: NCI 60 cell line panel (SRB), NCI-H23; format: cell-based; settings: Homo sapiens; NCI-H23, Non-Small Cell Lung Cancer; single dose of 10 μM; read-out: Cell Growth Percent
CAKI-1 = experiment: NCI 60 cell line panel (SRB), CAKI-1; format: cell-based; settings: Homo sapiens; CAKI-1, Renal Cancer; single dose of 10 μM; read-out: Cell Growth Percent
HL-60(TB) = experiment: NCI 60 cell line panel (SRB), HL-60(TB); format: cell-based; settings: Homo sapiens, Leukemia, single dose of 10 μM, read-out: Cell Growth Percent
HOP-92 = experiment: NCI 60 cell line panel (SRB), HOP-92; format: cell-based; settings: Homo sapiens; HOP-92, Non-Small Cell Lung Cancer; single dose of 10 μM; read-out: Cell Growth Percent
UACC-257 = experiment: NCI 60 cell line panel (SRB), UACC-257; format: cell-based; settings: Homo sapiens; UACC-257, Melanoma; single dose of 10 μM; read-out: Cell Growth Percent
MDA-MB-231/ATCC = experiment: NCI 60 cell line panel (SRB), MDA-MB-231/ATCC; format: cell-based; settings: Homo sapiens, Breast Cancer, single dose of 10 μM, read-out: Cell Growth Percent
RXF 393 = experiment: NCI 60 cell line panel (SRB), RXF 393; format: cell-based; settings: Homo sapiens; RXF 393, Renal Cancer; single dose of 10 μM; read-out: Cell Growth Percent
OVCAR-4 = experiment: NCI 60 cell line panel (SRB), OVCAR-4; format: cell-based; settings: Homo sapiens; OVCAR-4, Ovarian Cancer; single dose of 10 μM; read-out: Cell Growth Percent
A498 = experiment: NCI 60 cell line panel (SRB), A498; format: cell-based; settings: Homo sapiens; A498, Renal Cancer; single dose of 10 μM; read-out: Cell Growth Percent
SK-MEL-2 = experiment: NCI 60 cell line panel (SRB), SK-MEL-2; format: cell-based; settings: Homo sapiens; SK-MEL-2, Melanoma; single dose of 10 μM; read-out: Cell Growth Percent
UO-31 = experiment: NCI 60 cell line panel (SRB), UO-31; format: cell-based; settings: Homo sapiens; UO-31, Renal Cancer; single dose of 10 μM; read-out: Cell Growth Percent
NCI-H522 = experiment: NCI 60 cell line panel (SRB), NCI-H522; format: cell-based; settings: Homo sapiens; NCI-H522, Non-Small Cell Lung Cancer; single dose of 10 μM; read-out: Cell Growth Percent
RPMI-8226 = experiment: NCI 60 cell line panel (SRB), RPMI-8226; format: cell-based; settings: Homo sapiens; RPMI-8226, Leukemia; single dose of 10 μM; read-out: Cell Growth Percent
HCT-15 = experiment: NCI 60 cell line panel (SRB), HCT-15; format: cell-based; settings: Homo sapiens; HCT-15, Colon Cancer; single dose of 10 μM; read-out: Cell Growth Percent
OVCAR-8 = experiment: NCI 60 cell line panel (SRB), OVCAR-8; format: cell-based; settings: Homo sapiens; OVCAR-8, Ovarian Cancer; single dose of 10 μM; read-out: Cell Growth Percent
SK-OV-3 = experiment: NCI 60 cell line panel (SRB), SK-OV-3; format: cell-based; settings: Homo sapiens; SK-OV-3, Ovarian Cancer; single dose of 10 μM; read-out: Cell Growth Percent
SF-295 = experiment: NCI 60 cell line panel (SRB), SF-295; format: cell-based; settings: Homo sapiens; SF-295, CNS Cancer; single dose of 10 μM; read-out: Cell Growth Percent
NCI-H226 = experiment: NCI 60 cell line panel (SRB), NCI-H226; format: cell-based; settings: Homo sapiens; NCI-H226, Non-Small Cell Lung Cancer; single dose of 10 μM; read-out: Cell Growth Percent
EKVX = experiment: NCI 60 cell line panel (SRB), EKVX; format: cell-based; settings: Homo sapiens, Non-Small Cell Lung Cancer, single dose of 10 μM, read-out: Cell Growth Percent
SW-620 = experiment: NCI 60 cell line panel (SRB), SW-620; format: cell-based; settings: Homo sapiens; SW-620, Colon Cancer; single dose of 10 μM; read-out: Cell Growth Percent
SF-268 = experiment: NCI 60 cell line panel (SRB), SF-268; format: cell-based; settings: Homo sapiens; SF-268, CNS Cancer; single dose of 10 μM; read-out: Cell Growth Percent
ACHN = experiment: NCI 60 cell line panel (SRB), ACHN; format: cell-based; settings: Homo sapiens, Renal Cancer, single dose of 10 μM, read-out: Cell Growth Percent
HCC-2998 = experiment: NCI 60 cell line panel (SRB), HCC-2998; format: cell-based; settings: Homo sapiens; HCC-2998, Colon Cancer; single dose of 10 μM; read-out: Cell Growth Percent

Row | Compound | activity at 10 µM (MCF7) [%] | activity at 10 µM (LOX IMVI) [%] | activity at 10 µM (T-47D) [%] | activity at 10 µM (OVCAR-3) [%] | activity at 10 µM (CCRF-CEM) [%] | activity at 10 µM (DU-145) [%] | activity at 10 µM (NCI/ADR-RES) [%] | activity at 10 µM (HT29) [%] | activity at 10 µM (PC-3) [%] | activity at 10 µM (NCI-H23) [%] | activity at 10 µM (CAKI-1) [%] | activity at 10 µM (HL-60(TB)) [%] | activity at 10 µM (HOP-92) [%] | activity at 10 µM (UACC-257) [%] | activity at 10 µM (MDA-MB-231/ATCC) [%] | activity at 10 µM (RXF 393) [%] | activity at 10 µM (OVCAR-4) [%] | activity at 10 µM (A498) [%] | activity at 10 µM (SK-MEL-2) [%] | activity at 10 µM (UO-31) [%] | other results
1 | COc1cccc(NC(=O)Nc2ccc(Oc3ncnc4sc5c(c34)CCCC5)cc2)c1 [Compound 21c] | 54.4 | 61.5 | 41.7 | 68.3 | 64.4 | 82.4 | 70.5 | 54.8 | 45 | 67.7 | 80.8 | 106 | 79 | 100 | 69.6 | 74 | 56.6 | 67.8 | 97.3 | 52.5 | IC50 (VEGFR-2 (KDR)): 47 nM; activity at 10 µM (NCI-H522): 21%; activity at 10 µM (RPMI-8226): 46.7%; activity at 10 µM (HCT-15): 67.1%; activity at 10 µM (OVCAR-8): 89.9%; activity at 10 µM (SK-OV-3): 78.2%; activity at 10 µM (SF-295): 76.1%; activity at 10 µM (NCI-H226): 65.1%; activity at 10 µM (EKVX): 66.2%; activity at 10 µM (SW-620): 96.3%; activity at 10 µM (SF-268): 72%; activity at 10 µM (ACHN): 75%; activity at 10 µM (HCC-2998): 102%
2 | CCOC(=O)c1c(C)oc2ncnc(Nc3ccc(C(=O)Nc4cccc(Cl)c4)cc3)c12 [Compound 14a] | 90.6 | 93.1 | 98.2 | 110 | 93.8 | 75.9 | 99.4 | 83.6 | 78.3 | 100 | 99.2 | 105 | 92 | 117 | 95.8 | 76.8 | 98 | 92.4 | 99.8 | 89.5 | inhibition at 10 µM (VEGFR-2 (KDR)): 5%; activity at 10 µM (NCI-H522): 78%; activity at 10 µM (RPMI-8226): 94.6%; activity at 10 µM (HCT-15): 108%; activity at 10 µM (OVCAR-8): 103%; activity at 10 µM (SK-OV-3): 112%; activity at 10 µM (SF-295): 115%; activity at 10 µM (NCI-H226): 97%; activity at 10 µM (EKVX): 102%; activity at 10 µM (SW-620): 106%; activity at 10 µM (SF-268): 103%; activity at 10 µM (ACHN): 114%; activity at 10 µM (HCC-2998): 105%
3 | Cc1cccc(NC(=O)Nc2ccc(Oc3ncnc4sc5c(c34)CCCC5)cc2)c1 [Compound 21b] | 44.1 | 77.3 | 49.2 | 63.5 | 70 | 81.3 | 71.5 | 65.6 | 37.5 | 72.4 | 86 | 98.4 | 80.9 | 107 | 81.9 | 79 | 61.2 | 68.3 | 99.7 | 59 | IC50 (VEGFR-2 (KDR)): 33.4 nM; activity at 10 µM (NCI-H522): 16.1%; activity at 10 µM (RPMI-8226): 58.9%; activity at 10 µM (HCT-15): 74.9%; activity at 10 µM (OVCAR-8): 85.9%; activity at 10 µM (SK-OV-3): 79.7%; activity at 10 µM (SF-295): 67.6%; activity at 10 µM (NCI-H226): 73.1%; activity at 10 µM (EKVX): 62.8%; activity at 10 µM (SW-620): 103%; activity at 10 µM (SF-268): 72.6%; activity at 10 µM (ACHN): 73.4%; activity at 10 µM (HCC-2998): 104%
4 | CCOC(=O)c1c(C)oc2ncnc(Nc3ccc(NC(=O)Nc4cccc(Cl)c4)cc3)c12 [Compound 15d] | 43.3 | 64.1 | 1.9 | 80.8 | 31.5 | 70.8 | 43.7 | 37.1 | 41.2 | 64 | 90.8 | 88.4 | 50.6 | 83.9 | 18.6 | 63.6 | 73.7 | 63 | 72.7 | 50.3 | inhibition at 10 µM (VEGFR-2 (KDR)): 61%; activity at 10 µM (NCI-H522): 57.1%; activity at 10 µM (RPMI-8226): 46.1%; activity at 10 µM (HCT-15): 58.9%; activity at 10 µM (OVCAR-8): 50.2%; activity at 10 µM (SK-OV-3): 93.2%; activity at 10 µM (SF-295): 79.5%; activity at 10 µM (NCI-H226): 54.8%; activity at 10 µM (EKVX): 72.3%; activity at 10 µM (SW-620): 88.6%; activity at 10 µM (SF-268): 86.4%; activity at 10 µM (ACHN): 57.4%; activity at 10 µM (HCC-2998): 105%
